Source: US20030176406A1, “Polycaprolactone-b-poly (ethylene oxide) copolymer non-cross-linked micelles as a delivery vehicle for steroid” (McGill University, priority 1999, published 2003)

Experiment: Kinetic release of DHT from PCL20-b-PEO44 micelles (dialysis method, PBS pH 7.4, 37° C.)
Type: physicochemical
Details: control solution (drug alone)
Procedure: To the dried micelles, 100 μL of phosphate buffer solution, PBS (pH 7.4) was added. To ensure that the micelles were well dispersed in PBS, the solutions were vortexed. The dispersed micelles were left to stand in a 37° C. warm room for 30 minutes. Once the micelle solution had reached 37° C., it was placed in a dialysis bag which was immersed in a large vial containing warmed PBS (10 mL PBS, pH=7.4, 37° C.). […] The aliquot was dispersed in 4 mL of scintillation cocktail and then counted. Following the removal of each 100 uL aliquot, a 100 uL aliquot of fresh PBS was added.
The dialysis method was used to study the release of DHT from two micelle solutions which differed in the amount of DHT that they contained. The concentration of the solutions studied were 8 mM and 40 mM.

C[C@]12CCC(=O)C[C@@H]1CC[C@@H]1[C@@H]2CC[C@]2(C)[C@@H](O)CC[C@@H]12 [DHT, dihydrotestosterone]
time to complete release: 3 h
